Experimental data published in US11141406B2, “Pharmaceutical compounds” (REVIRAL LIMITED, priority 2017, dated 2021).

How the values were obtained:
Type in all cases: cell-based
[1] = test system: RSV fusion (HEK293T cells transfected with pCDNA3.1_A2_F); test: RSV fusion assay; conditions: human respiratory syncytial virus, HEK-293T, read-out: RSV Fusion Assay (n ≥ 2) IC50
Experimental: HEK293T ((ECACC 12022001) cells were cultured in T75 culture flasks in Dulbecco's medium (DMEM) containing 10% Foetal Bovine serum (FBS), 50 units per mL Penicillin and 50 μg/mL Streptomycin and warmed to 37° C. prior to use. The cells were passaged by first washing briefly with 5 mL Phosphate buffered saline (PBS), followed by addition of 2 mL of Trypsin Ethylenediaminetetraacetic acid (EDTA) to detach the cells. Once cells had detached from the flask, 8 mL media was then added to and the cells dispersed via pipetting against the bottom of the flask.
The cells were counted and diluted to 3×10^5 cells/mL in fresh media. Two T75 flasks were each seeded with 15.6 mL diluted cells, cells were also subcultured at a ratio of between 1:2 and 1:10, to continue the stock. The flasks were then incubated for 24 h at 37° C. and 5% CO2.
The plasmid DNA (for pFR-Luc and pcDNA3.1_Gal4/NFKB) to be transfected into the HEK 293T cells was first prepared in serum free media (Opti-MEM, Invitrogen), containing the transfection reagent FuGENE® 6 (Promega). Serum free media was placed in a 1.5 mL eppendorf tube then the FuGENE 6 was added into the media. The tube was vortexed for 1 s before being incubated at RT for 5 min. 7.79 ng of both pFR_luc and pCDNA3.1_A2_F plasmid DNA were added to tube 1 and 7.79 ng of pCDNA3.1_GAL4-NF-κB plasmid to tube 2. The tubes were vortexed for 1 second and then incubated at room temperature for 15 min. Each transfection mixture was then added into the media of one of the T75 flasks of 293T cells. Cells were cultured for 24 h at 37° C., 5% CO2 in a humidified incubator.
Compounds were diluted (in a polypropylene round-bottomed 96 well plate) 1:3 in a twelve point dilution curve to give top [final] of either 25 μM, 3 μM, 1 μM or 500 nM. A control compound was included in every assay at a top concentration of 3 μM. Transfected cells were counted and diluted to 4×10^5 cells/mL in fresh media. 50 μL of transfection population 1 were added to all wells of the 96 well flat bottom white opaque assay plates. 100 μL diluted compound (2 rows per compound), control compound (one row) and controls (DMSO (0% inhibition, four wells), 3 μM positive control (100% inhibition, four wells) and media (transfection population 1 only, four wells) were added to the appropriate wells. 50 μL of the diluted (4×10^5 cells/mL) population 2 cells when then added to all wells, except the four wells of transfection population 1 only where an extra 50 μL of this cells population was added.
The plates were then incubated for 24 h at 37° C. and 5% CO2. After this time, 100 μL was removed from all wells and 60 μL of ONE-Glo™ (Promega) reagent, pre-equilibrated to room temperature, was added. Plates were then incubated for 3 min at room temperature before luminescence was read, using the ONE-Glo protocol, on the GloMax Explorer System (Promega) multimode reader. Analysis was carried out in Dotmatics software. All raw data were background subtracted (subtraction of mean 3 μM positive control value), before IC50 calculation.

RSV A2, 0709161v = test: RSV plaque reduction assay, alternative conditions (Hep G2 cells); conditions: human respiratory syncytial virus, HepG2, mean of at least 2 independent experiments, read-out: RSV Plaque Reduction Assay Strain A2 IC50
Experimental: (§1) Plates were scanned and analyzed using the Immunospot S6 UV analyzer, which is equipped with BioSpot analysis software for counting immunostained plaques (virospots). Plaque counts were used to calculate % infection relative to the mean of the spot count (SC) in the virus control wells for RSV. IC50/IC90 values were calculated as 50% or 90% reduction in signal, respectively, by interpolation of inhibition curves fitted with a 4-parameter nonlinear regression with a variable slope in GraphPad 5.0 (Prism). Alternatively, where noted the plaque reduction assay was performed as follows. Hep G2 cells (ECACC, 85011430) were passaged in flasks and seeded in 12-well plates in DMEM containing antibiotics and supplemented with 10% FBS, 24 h prior to inoculation. During inoculation and subsequent incubation, cells were cultured in DMEM containing 2% FBS. 75 plaque forming unit (PFU)/well of RSV (RSV A2, 0709161v) was mixed with 8 serial dilutions of compound. Subsequently, 200 μL of the virus/compound mixtures was added to confluent Hep G2 cell monolayers, for a 2 h infection, with manual shaking every 15 min. Infectious supernatant was then removed and replaced with 2 mL of overlay, comprising 4 parts of DMEM+2% FBS and 1 part 4% CMC, with 0.25% DMSO. The cells were incubated at 37° C. in a humidified 5% CO2 incubator for 5 days.
Overlay was removed, and cells were washed with PBS before fixing with a mixture of 75% acetone 25% methanol for 3 minutes and replacing with fresh PBS. […] Staining was carried out whilst shaking at 37° C. First the plates were blocked with 500 uL PBS-T/2% milk powder per well, for 1 hr. This was then replaced with 250 uL PBS-T/2% milk powder containing a pre-titrated amount of the primary antibody (ab1128), for 90 min. The plates were washed 3×5 min with PBS-T, before addition of rabbit anti-goat horse radish peroxidase (AP106P) in 250 μL PBS-T/2% milk powder, and incubated for 1 hr. […]
Plates were scanned and analysed using the Immunospot S6 Macro analyzer, which is equipped with BioSpot analysis software for counting immunostained plaques. […]

RSV A2 VR-1540 = test: RSV plaque reduction assay, typical conditions (HEp-2 cells); conditions: human respiratory syncytial virus
Experimental: The plaque reduction assay was typically performed as follows. HEp-2 cells (ATCC, CCL23) were passaged in flasks and seeded in 96-well plates in DMEM containing antibiotics and supplemented with 10% FBS. During inoculation and subsequent incubation, cells were cultured in DMEM containing 3% FBS. 100 plaque forming unit (PFU)/well of RSV (RSV A2 VR-1540) was mixed with ten serial dilutions of compound. Subsequently, 100 μL of the virus/compound mixtures was added to confluent HEp-2 cell monolayers. The cells and virus/compound mixtures were incubated at 35° C. in a humidified 5% CO2 incubator for 1 day.
Cells were washed twice with PBS before adding 50% v % v EtOH/MeOH, and then stored at −20° C. On the day of the staining, fixative was first removed from the plates. Plates were washed 3× with PBS. A pre-titrated amount of the primary antibody was added in 60 μL PBS/2% milk powder, and plates incubated for 1 h at rt. The plates were washed 3× with PBS/0.05% Tween20 before addition of goat anti-mouse horse radish peroxidase in 60 μL PBS/2% milk powder, and incubated for 1 h at rt. Following three wash steps with PBS/0.05% Tween20, 60 μL ready-to-use TrueBlue was added and plates were incubated at it for 10-15 min before adding MilliQ water. Plates were washed once with water, incubated for 30-60 min and after removal of water, air-dried in the dark.
as §1

| Structure (SMILES) | IC50 [1] [nM] | IC50 (RSV A2, 0709161v) [nM] | IC90 (RSV A2 VR-1540; typical protocol, read-out: RSV Plaque Reduction Assay Strain A2 IC90) [nM] | IC50 (RSV A2 VR-1540; †: typical protocol, n = 1, read-out: RSV Plaque Reduction Assay Strain A2 IC50) [nM] |
| --- | --- | --- | --- | --- |
| CS(=O)(=O)N1CCC(n2c(CN3C(=O)C(F)(F)c4ccccc43)nc3cc(Cl)ccc32)CC1 [Compound 8, 1-{[5-Chloro-1-(1-methanesulfonylpiperidin-4-yl)-1H-1,3-benzodiazol-2-yl]methyl}-3,3-difluoro-2,3-dihydro-1H-indol-2-one] | 1.7 | 3.5 |  |  |
| CS(=O)(=O)N1CCN(CCCn2c(CN3C(=O)C(F)(F)c4ccccc43)nc3cc(Cl)ccc32)CC1 [Compound 2, 1-({5-Chloro-1-[3-(4-methanesulfonylpiperazin-1-yl)propyl]-1H-1,3-benzodiazol-2-yl}methyl)-3,3-difluoro-2,3-dihydro-1H-indol-2-one] | 16 |  | 35 | 5 |
